Results as given in patent US11759434B2, “Methods and compositions for treating melanoma and non-melanoma skin cancers” (Sytheon Limited, priority 2022, dated 2023).

What was measured:
[1] = test system: Trametinib resistant human, NRAS mutated, WM1366 melanoma cells; assay: MBPD/Trametinib synergy, cell viability (Alamar blue); assay type: cell-based
Method: Specifically, Trametinib resistant human, NRAS mutated, WM1366 melanoma cells were created in-house by sequentially treating the cells with various concentrations (2 nM-10 nM) of Trametinib for several weeks. Those cells which survived 2 nM Trametinib after two weeks, were then incubated with 4 nM Trametinib and those that survived 4 nM Trametinib for two weeks were isolated and then incubated with 10 nM for several weeks. This led to development of resistance in the WM1366 cells.
In this study, the Trametinib resistant cells were seeded into black walled 96 well plates (cat. no.—165305, thermo), ˜1000 cells per well employing the same media as noted in Example 1. On Day 2, the cells were treated with 125 or 62.5 μg/ml MBPD and incubated for 48 hours. After 48 hours, fresh cell-culture medium was added with MBPD and Trametinib at concentrations of 30, 15, 7.5, 3.75, 1.875, and 0.9375 nM and the cells allowed to sit for 72 hours. On Day 7, Alamar blue (cat. no. A50101, invitrogen) was added to each well and the cultures incubated for 1 hr in a CO2 incubator. Thereafter, the dye was replaced with 100 ul PBS (Cat no. 14190-144, Gibco) and cell viability as evidenced by fluorescence was recorded (by Biotek synergy/H1 microplate reader) at 560/590 nm.
Molar (M) IC50 values were calculated using formula weight of each of the compounds individually.

[2] = test system: patient derived, NRAS-mutated melanoma cells; assay: Cell viability (Alamar blue) in melanoma cells; assay type: cell-based, human; details: 3 days treatment, 3 biological repeats
Method: (§1) In support of the present teachings several experiments were conducted to assess the cytotoxicity of compound 1 (Acetyl Zingerone CAT), available as Synoxyl® AZ from Sytheon Ltd.) and Compound 4, its mono-methoxy analog (3-(4-Methoxy-benzyl)-pentane-2,4-dione (MBPD)), towards normal melanocytes (Normal, C57BL/6 mouse melanocytes, darkly pigmented), and patient derived, NRAS-mutated melanoma cells. On Day 1, the melanoma cells and normal melanocytes were seeded into the black walled 96 well plates (cat. no.—165305, thermo), ˜1000 cells per well and allowed to stand for one day. […] Thereafter, the dye was replaced with 100 ul PBS (Cat. no. 14190-144, Gibco) and cell viability as evidenced by fluorescence was recorded (by Biotek synergy/H1 microplate reader) at 560/590 nm. Cell survival was calculated by subtracting the background (media only) and then normalizing those results with the results obtained from the cells that were not treated with AZ or MBPD. […]

[3] = test system: human epidermal keratinocytes; assay: MTT assay (cell viability) after H2O2-induced senescence; assay type: cell-based
Method: (§2) AMPK activation is a known and efficacious treatment for melanoma and non-melanoma skin cancer (See. e.g., Chen. L. et. al., “AMPK Activation by GSK621 Inhibits Human Melanoma Cells In Vitro and In Vivo”, Biochemical and Biophysical Research Communications 480 (2016), 515-521). To ascertain the ability and efficacy of the compounds of Structure 1 to activate AMPK, a cell assay study was undertaken. In the study, human epidermal keratinocytes were grown using EpiLife Media (60 μM calcium) supplemented with 0.2% v/v bovine pituitary extract, 1 μg/ml recombinant human insulin-like growth factor-I, 0.18 μg/ml hydrocortisone, 5 μg/ml bovine transferrin, 0.2 ng/ml human epidermal growth factor. The cells were grown at 37±2° C. and 5±1% CO2. The keratinocytes were seeded into 96-well plates and cultured overnight to allow the cells to adhere to the well plates. Prior to experimental use, the growth media was replaced with basal media (unsupplemented EpiLife Media) for five hours prior to starting any treatments.
(§3) The foregoing effect of AZ as an AMPK activator and, in turn, anti-melanoma treatment is especially surprising in light of the pro-viability effect of AZ in normal cells, even those in senescence. Specifically, following on the foregoing experimental methodology, additional studies were conducted on the human keratinocytes cells to assess AZ's impact on cell viability as evidenced by an MTT assay as well as an assessment of its impact on SA-B-Gal activity. In these studies, the human epidermal keratinocytes were treated in basal media for two hours with the test material and then treated with either 50 uM or 100 uM H2O2 in basal media for an additional two hours: the latter treatment to induce senescence. Following the H2O2 treatment, the cells were placed in with fully supplemented EpiLife media for either 16 hours after which changes in cell viability was evaluated via an MTT assay or for 3 days after which changes in the cellular senescence marker beta galactosidase (SA-B-GAL) was evaluated.
MTT Calculation: the mean MIT absorbance value for untreated cells not exposed to H2O2 was calculated and used to represent 100% cell viability. The individual MIT values from the cells undergoing the various treatments was then divided by the mean value for the untreated cells not exposed to H2O2 and expressed as a percent to determine the change in cell viability caused by each treatment.

AMPK = AMPK activation study (phosphorylation of AMPK at Thr-172) in epidermal keratinocytes; assay type: cell-based, human; details: for AMPK-P/Protein Ratio: two hours
Method: as §2
The ability of the test material to activate AMPK was determined by measuring the phosphorylation of AMPK. The epidermal keratinocytes were treated with the test material prepared in basal media for two hours. At the end of the two-hour incubation the culture media was removed and the cells were fixed in 4% formaldehyde for 20 minutes at room temperature. After the fixation, the cells were washed three times with wash solution (1 minute per wash) and any endogenous peroxidase activity was quenched by adding 100 ul of a 0.3% H2O2 solution to the wells and incubating the plate for another 20 minutes. After washing as described above, non-specific antibody binding was blocked by adding 200 ul of blocking buffer to each well and incubating the plate for 1 hour at room temperature. […] After this incubation the well plate was read using a fluorometer at 530ex/590em to determine AMPK phosphorylation and at 360ex/485em to determine total cellular protein.

[4] = test system: Senescent Associated β-Galactosidase (SA-B-Gal); assay: Senescent Associated β-Galactosidase (SA-B-Gal) activity assay; assay type: cell-based, human; details: 3 days
Method: as §2, §3
SA-B-GAL Calculation: To determine the changes in SA-B-GAL expression a direct measure of SA-B-GAL activity was used. At the end of the three-day incubation the media was removed, 100 ul of ice-cold cell lysis buffer was added and the cells were lysed for 5 minutes at 4° C. At the end of this lysis procedure a portion of the lysate was used for a protein assay while 50 ul of the cell lysate was transferred to a new well plate and combined with an equal volume of SA-B-GAL reaction buffer containing a fluorescent substrate. This well plate was then incubated for 3 hours at 37° C., after which a 50 ul sample of the reaction was combined with 200 ul of stop solution in a new well plate and the plate was read using a fluorometer (360ex/485em), The fluorescence intensity was then normalized to cellular protein and this ratio was used as an index of SA-B-GAL activity.

[5] = test system: Normal, C57BL/6 mouse melanocytes, darkly pigmented; assay: Cell viability (Alamar blue) in normal melanocytes; assay type: cell-based; details: Melanocyte, 72 h, 3 days treatment, 4 biological repeats
Method: as §1

CC(=O)Nc1cccc(-n2c(=O)n(C3CC3)c(=O)c3c(Nc4ccc(I)cc4F)n(C)c(=O)c(C)c32)c1 [Trametinib, trametinib, reference compound]
IC50 ([1]; Homo sapiens, in-house generated, Trametinib resistant, NRAS-mutated melanoma cells): 0.01 to 0.02 µM

COc1cc(CC(C(C)=O)C(C)=O)ccc1O [AZ, Acetyl Zingerone]
IC50 [2]: 1300 µM
Viability (% of non-H2O2 exposed cells) ([3]; 12.5 μg/ml, 50 μM H2O2): 79.9 ± 11.5%
Viability (% of non-H2O2 exposed cells) ([3]; 12.5 μg/ml, 100 μM H2O2): 79.1 ± 1.4%
Viability (% of non-H2O2 exposed cells) ([3]; 25 μg/ml, 50 μM H2O2): 76.1 ± 6.9%
Viability (% of non-H2O2 exposed cells) ([3]; 25 μg/ml, 100 μM H2O2): 77.4 ± 9.6%
Viability (% of non-H2O2 exposed cells) ([3]; 50 μg/ml, 50 μM H2O2): 100.7 ± 8.3 %
Viability (% of non-H2O2 exposed cells) ([3]; 50 μg/ml, 100 μM H2O2): 100.2 ± 6.5%
AMPK-P/Protein Ratio (AMPK; 25 μg/ml): 4.16 ± 0.65
increase of AMPK activity (AMPK; 50 μg/ml): 88.3%
AMPK-P/Protein Ratio (AMPK; 50 μg/ml): 6.48 ± 1.10
SA-B-Gal Activity/Protein ([4]; 12.5 μg/ml, 50 μM H2O2): 3.45 ± 0.29
SA-B-Gal Activity/Protein ([4]; 12.5 μg/ml, 100 μM H2O2): 3.29 ± 0.37
SA-B-Gal Activity/Protein ([4]; 25 μg/ml, 50 μM H2O2): 3.30 ± 0.23
SA-B-Gal Activity/Protein ([4]; 25 μg/ml, 100 μM H2O2): 3.95 ± 0.36
SA-B-Gal Activity/Protein ([4]; 50 μg/ml, 50 μM H2O2): 0.91 ± 0.06
SA-B-Gal Activity/Protein ([4]; 50 μg/ml, 100 μM H2O2): 0.90 ± 0.15

COc1ccc(CC(C(C)=O)C(C)=O)cc1 [MBPD, 3-(4-Methoxy-benzyl)-pentane-2,4-dione]
reduction of the Trametinib IC50 by MBPD ([1]; 125 or 62.5 μg/ml MBPD, 48 h pre-incubation then MBPD plus Trametinib 72 h, 2 biological repeats): ~5 fold
IC50 ([2]; Homo sapiens, 72 h): 400 µM
IC50 [5]: 14400 µM
